Assay in all cases: MIC values / microbial growth in Sabouraud maltose broth and synergistic index (Kull)
Assay type in all cases: cell-based

The subject of assay [1] is Penicillium funiculosum IMI 211742. The following applies: employed alone, incubation 72 hours at 25° C.; for MIC: Talaromyces funiculosus, IMI211742. On the procedure:
(§1) In addition to the biocide component and water, the aqueous mixtures also comprised a nutrient medium, viz. a Sabouraud maltose broth (commercial product, Merck No. 10393). The cell density was 10^6 cells/ml. The incubation time was 96 hours at 25° C. Each sample was incubated in a shaker-incubator at 120 rpm.
(§2) The synergistic index calculated by the method of F. C. Kull et al., Applied Microbiology, vol. 9 (1961), p. 538. Here, the synergistic index is calculated using the following formula: Synergistic index SI=Qa/QA+Qb/QB.
(§3) If the synergistic index has a value of above 1, this means that antagonism is present. If the synergistic index assumes a value of 1, this means that an additive effect of the two biocides exists. If the synergistic index assumes a value of less than 1, this means that synergism of the two biocides exists.
(§4) Again, the experimental batches contained a Sabouraud maltose broth as the nutrient medium. The cell density was 10^6 cells/ml. The incubation time was 72 hours at 25° C. Each sample was incubated in a shaker-incubator at 120 rpm.

For assay [2], the system named is Penicillium funiculosum DSM 12637. The following applies: employed alone, incubation 96 hours at 25° C.; for MIC: Talaromyces funiculosus, DSM12637. On the procedure:
as §1, §2, §3
Again, the experimental batches contained a Sabouraud maltose broth as the nutrient medium. The cell density was 10^6 cells/ml. The incubation time was 96 hours at 25° C. Each sample was incubated in a shaker-incubator at 120 rpm.

The subject of assay [3] is Aspergillus niger DSM 1957. The note with it: for MIC: Aspergillus niger, DSM1957; for Synergistic index Qa/QA + Qb/QB: single active ingredient alone. The protocol: as §1, §2, §3, §4

Where “and” joins values, the source holds several entries; their conditions need not be identical. Equal values may be shown once. Read-outs that look alike come from different tables or passages of the source.

Take `CCCCNC(=O)OCC#CI` [IPBC, 3-iodo-2-propynyl N-butylcarbamate]: the MIC in assay [1] stood at 0.75 µg/mL; in assay [2], 2 µg/mL.
In the case of `CCCCCCCCn1sccc1=O` [OIT, 2-n-octylisothiazolin-3-one], the MIC value in assay [2] came to 0.5 ppm.
Regarding `CCCCCCCCn1sc(Cl)c(Cl)c1=O` [DCOIT, 4,5-dichloro-2-n-octyl-4-isothiazolin-3-one], the MIC in assay [3] (DCOIT alone (100.0 % by weight), 72 h/25° C., read-out: MIC at DCOIT concentration Qb) was found to be 0.75 µg/mL; in assay [3] (employed alone, incubation 72 hours at 25° C., read-out: MIC value), 0.75 µg/mL; in assay [1] it was 1 µg/mL; in assay [2], 2 µg/mL. Besides, in assay [3] (72 h/25° C.), the “Synergistic index Qa/QA + Qb/QB” value is 1.00.
As to zinc pyrithione [ZnPy], in assay [3] (ZnPy alone (100.0 % by weight), 72 h/25° C.), the “MIC at ZnPy concentration Qa” value came to 17.5 ppm. The MIC value is 17.5 ppm in assay [3] (employed alone, incubation 72 hours at 25° C.); 1 ppm and 0.75 ppm in assay [1]; 2 ppm in assay [2]. Moreover, in assay [3] (72 h/25° C.), the “Synergistic index Qa/QA + Qb/QB” value is on record as 1.00.

(Values after US6846777B2, “Synergistic biocidal composition” (Thor GmbH, priority 2000, dated 2005).)
